Experimental data published in patent publication US7960378B2, “Therapeutic compounds” (Allergan, Inc., priority 2008, dated 2011).

What was measured:
Assay type in all cases: in vivo
normotensive dogs = assay: IOP in normotensive dogs; details: versus baseline
[1] = system: laser-induced hypertensive monkeys; assay: IOP in laser-induced hypertensive monkeys; details: versus baseline
[2] = system: lashes and adjacent hairs of the eyelids; assay: Lash and adjacent hair changes in glaucoma patients treated in one eye; details: glaucoma patient treated in only one eye
Text: In the course of treating patients having glaucoma, treatment may only be appropriate in one eye. […] The lash appearance on the lids of the treated eyes would have appeared quite attractive if it represented a bilateral phenomenon. As a result of its asymmetric nature, the long lashes on one side could be construed as disturbing from a cosmetic standpoint. A systemic examination was preformed as a result of the asymmetric phenomenon. It soon became apparent that this altered appearance was not an isolated finding. […] Definite differences could be identified to varying degrees in the lashes and adjacent hairs of all patients who were taking the drug on a unilateral basis for longer than 6 months.
The changes in the lashes were apparent on gross inspection in several patients once attention was focused on the issue. In those with light colored hair and lashes, the differences were only seen easily with the aid of the high magnification and lighting capabilities of the slit lamp biomicroscope. In the course of glaucoma follow-up examination, attention is generally immediately focused on the eye itself. As a result of the high power magnification needed only one eye is seen at a time and the eye is seen at a high enough power that the lashes are not in focus. […]

SMILES | intraocular pressure (IOP) (normotensive dogs) | IOP [1] | lash appearance, treated eye versus non-treated eye [2]
CCC1(C(O)CCC[C@@H]2[C@@H](CCCCCCC(=O)OCCO)[C@H](C#N)C[C@H]2O)CCC1 (stereo partly drawn) [Compound III] | decreases from baseline | decreases from baseline | 
N#C[C@@H]1C[C@@H](O)[C@H](/C=C/CC(O)C2(c3cccs3)CCC2)[C@H]1C/C=C\CCCC(=O)OCCO (stereo partly drawn) [Compound II] | decreases from baseline | decreases from baseline | 
N#C[C@@H]1C[C@@H](O)[C@H](/C=C/CC(O)C2(c3cccs3)CCC2)[C@H]1CCCCCCC(=O)OCCO (stereo partly drawn) [Compound IV] | decreases from baseline | decreases from baseline | 
CCC1(C(O)C/C=C/[C@@H]2[C@@H](C/C=C\CCCC(=O)OCCN3CCOCC3)[C@H](C#N)C[C@H]2O)CCC1 (stereo partly drawn) [Compound IX] | decreases from baseline | decreases from baseline | 
CCC1(C(O)C/C=C/[C@@H]2[C@@H](C/C=C\CCCC(=O)OCCO)[C@H](C#N)C[C@H]2O)CCC1 (stereo partly drawn) [Compound I] | decreases from baseline | decreases from baseline | 
N#C[C@@H]1C[C@@H](O)[C@H](CCCC(O)C2(c3cccs3)CCC2)[C@H]1CCCCCCC(=O)OCCO (stereo partly drawn) [Compound VIII] | decreases from baseline | decreases from baseline | 
CCC1(C(O)C/C=C/[C@@H]2[C@@H](CCCc3ccc(C(=O)OCCO)s3)[C@H](C#N)C[C@H]2O)CCC1 (stereo partly drawn) [Compound VII] | decreases from baseline | decreases from baseline | 
CCC1(C(O)CCC[C@@H]2[C@@H](CCCc3ccc(C(=O)OCCO)s3)[C@H](C#N)C[C@H]2O)CCC1 (stereo partly drawn) [Compound VI] | decreases from baseline | decreases from baseline | 
N#C[C@@H]1C[C@@H](O)[C@H](/C=C/CC(O)C2(Cc3ccc(Cl)s3)CCC2)[C@H]1C/C=C\CCCC(=O)OCCO (stereo partly drawn) [Compound V] | decreases from baseline | decreases from baseline | 
N#C[C@@H]1C[C@@H](O)[C@H](/C=C/CC(O)C2(Cc3ccc(Cl)s3)CCC2)[C@H]1C/C=C\CCCC(=O)OCCN1CCOCC1 (stereo partly drawn) [Compound XIII] | decreases from baseline | decreases from baseline | 
N#C[C@@H]1C[C@@H](O)[C@H](/C=C/CC(O)C2(c3cccs3)CCC2)[C@H]1CCCCCCC(=O)OCCN1CCOCC1 (stereo partly drawn) [Compound XII] | decreases from baseline | decreases from baseline | 
CCC1(C(O)CCC[C@@H]2[C@@H](CCCc3ccc(C(=O)OCCN4CCOCC4)s3)[C@H](C#N)C[C@H]2O)CCC1 (stereo partly drawn) [Compound XIV] | decreases from baseline | decreases from baseline | 
CCC1(C(O)CCC[C@@H]2[C@@H](CCCCCCC(=O)OCCN3CCOCC3)[C@H](C#N)C[C@H]2O)CCC1 (stereo partly drawn) [Compound XI] | decreases from baseline | decreases from baseline | 
CCC1(C(O)C/C=C/[C@@H]2[C@@H](CCCc3ccc(C(=O)OCCN4CCOCC4)s3)[C@H](C#N)C[C@H]2O)CCC1 (stereo partly drawn) [Compound XVI] | decreases from baseline | decreases from baseline | 
N#C[C@@H]1C[C@@H](O)[C@H](CCCC(O)C2(c3cccs3)CCC2)[C@H]1CCCCCCC(=O)OCCN1CCOCC1 (stereo partly drawn) [Compound XV] | decreases from baseline | decreases from baseline | 
N#C[C@@H]1C[C@@H](O)[C@H](/C=C/CC(O)C2(c3cccs3)CCC2)[C@H]1C/C=C\CCCC(=O)OCCN1CCOCC1 (stereo partly drawn) [Compound X] | decreases from baseline | decreases from baseline | 
CCNC(=O)CCC/C=C\C[C@@H]1[C@@H](/C=C/[C@@H](O)CCc2ccccc2)[C@H](O)C[C@@H]1O [bimatoprost] |  |  | longer, thicker, and fuller in the treated eye than in the non-treated eye
